Assay results taken from US7205387B2, “Recombinant polypeptide useful for neurotrophin receptor mediated gene delivery and as neurotrophin agonist” (Agency for Science, Technology and Research, priority 2003, dated 2007).
Bridge positions count the residues as written; N and C are the ends. Ends that are not written are not given here.

Key:
Erk1 and Erk2 = experiment: Phospho-Erk1/Erk2 (p44/p42 MAPK) immunoblot in PC12 cells; format: cell-based, rat; conditions: for effect of TrkA inhibitor pre-treatment on NL4- and NL4-10K-induced phosphorylation of Erk1 and Erk2: 100 nM K-252a or 10 μM AG879, 10 min pre-incubation
Protocol: (§1) Immunoblotting experiments were conducted to test whether the chimeric polypeptides could, like NGF, induce autophosphorylation of TrkA and activation of its signal transduction pathways. PC12 cells were seeded in 6-well plates at a density of 2×10^6 cells/well and cultured in RPMI 1640 containing 0.5% FBS and 0.25% horse serum for 2 days. The low serum concentrations were necessary to reduce the basal levels of phosphorylation. The medium was refreshed two hours before beginning treatment. The cells were incubated with the polypeptides or NGF in serum-free medium for 15–20 min. The cells were then washed in PBS, lysed, and sonicated. The cell lysates were resolved by SDS-PAGE and transferred to a nitrocellulose membrane for immunoblotting. The primary antibodies used include Phospho-TrkA (Tyr490) antibody, Phospho-p44/p42 MAPK (Thr202/Tyr204) monoclonal antibody, and Phospho-Akt (Ser473) monoclonal antibody, all obtained from Cell Signaling Technology (Beverly, Mass., USA). Colorimetric detection was performed by standard techniques after using horse-radish peroxidase-conjugated secondary antibodies. In some experiments, TrkA tyrosine kinase inhibitors K-252a or AG879 (both from Calbiochem, La Jolla, Calif., USA) were used. In these cases, PC12 cells were incubated with 100 nM K-252a or 10 μM AG879 before addition of polypeptides or NGF.

plasmid DNA [1] = experiment: DNA retardation assay (agarose gel electrophoresis); format: binding
Protocol: This assay qualitatively assesses the ability of a polypeptide or polycation to bind to DNA and thus to retard its migration (by decreasing its charge/mass ratio) through an agarose gel under electrophoresis. For a range of N/P ratios, polypeptide was added to 0.1 μg of plasmid DNA made up to 20 μl with either HEPES-buffered saline (HBS, 150 mM NaCl, 29 mM HEPES, pH 7.3) or 5% glucose. The mixtures were vortexed and incubated at room temperature for 30 minutes before being subjected to electrophoresis in a 0.8–1.0% Tris-borate-EDTA agarose gel stained with ethidium bromide for visualization under ultraviolet light.

[2] = system: PC12 (TrkA and p75^NTR positive) cells; experiment: Gene delivery in vitro (pCAGluc luciferase reporter), PC12 cells; format: cell-based, rat; conditions: for dose-response of transfection efficiency with increasing amount of peptide: 1 μg pCAGluc/well, 100 μM chloroquine
Protocol: A PC12 (rat pheochromocytoma) cell line was obtained from ATCC (American Type Culture Collection, Manassas, Va., USA) and cultured in RPMI-1640 medium supplemented with 10% fetal bovine serum (FBS) and 5% horse serum. PC12 cells are known to express TrkA and p75^NTR receptors. A COS7 (African green monkey kidney fibroblast) cell line was obtained from ATCC and cultured in Dulbecco's modified Eagle's medium (DMEM) supplemented with 10% fetal bovine serum, 50 U/ml penicillin, and 50 μg/ml streptomycin. The cells were maintained in a 37° C., 5% CO2, humidified incubator.
To determine the transfection efficiencies of our nucleic acid delivery systems, we employ a reporter plasmid, pCAGluc (a gift from Yoshiharu Matsuura, National Institute of Infectious Diseases, Tokyo, Japan), encoding firefly luciferase under the control of the composite promoter, CAG. CAG comprises the chicken β-actin promoter and the cytomegalovirus immediate early enhancer.
TrkA-targeting gene delivery complexes were tested for transfection efficiency in vitro in PC12 (TrkA and p75^NTR positive) cells and COS7 (neurotrophin receptor negative) cells. The cells were grown to 50–70% confluency in microplate wells (24-, 48-, or 96-well plates). The gene delivery complexes were prepared according to specifications presented for each example. Transfection was accomplished by replacing the serum-enriched medium with half the usual volume of reduced-serum medium, Opti-MEM (Invitrogen), containing the gene delivery complexes. Where specifically mentioned, 100 μM of chloroquine was also added to help the complexes escape from endosomes. After four hours of incubation, the cells were restored to the normal medium volume and serum concentration, either by topping up with medium containing twice the usual serum concentration (RPMI-1640 with 20% FBS and 10% horse serum for PC12) or by completely replacing the medium.
One to two days after transfection, the cell culture medium was removed and the cells were rinsed in phosphate-buffered saline (PBS). Enough Reporter Lysis Buffer (Promega, Wisconsin, Md., USA) to cover the bottom surface was added to each well (50 μl/well for 48-well plates). After one freeze-thaw cycle, the lysates were tested for luciferase activity using the Luciferase Assay System (Promega) and a single-tube luminometer (Berthold Lumat L B 9507, Bad Wildbad, Germany). The total protein concentration of each lysate was determined using the DC Protein assay (Bio-Rad, Hercules, Calif., USA). The results were expressed in relative light units (RLU) per milligram of total protein.

TrkA = biological target: T1, TrkA (Rattus norvegicus, UniProt P35739); experiment: Phospho-TrkA immunoblot in PC12 cells; format: cell-based; conditions: 5 μM peptide, 20 min
T1 construct: endogenous in cells; host or cells: PC12 (rat pheochromocytoma, ATCC)
Protocol: as §1

Akt = experiment: Phospho-Akt immunoblot in PC12 cells; format: cell-based, rat; conditions: 5 μM peptide, 20 min
Protocol: as §1

PC12 cells = experiment: PC12 cell survival assay (MTT, serum-free medium); format: cell-based, rat; conditions: differentiated PC12, serum and NGF deprived 4 days; 0.125 to 2.5 μM; NGF 10 ng/ml control
Protocol: Undifferentiated or differentiated (by 6-day treatment with 10 ng/ml NGF) PC12 cells seeded onto collagen-coated 96-well plates were exposed to serum-free RPMI-1640 medium containing either NGF or various concentrations of chimeric polypeptides. After 3–4 days of incubation, cell viability was measured by the standard MTT assay. Cell survival was expressed as a percentage of the viability of the NGF-treated control.

primary cortical neurons = experiment: Gene delivery to primary cultures of cortical neurons; format: cell-based, rat
Protocol: Primary cultures of neurons were established from the cortices of embryonic Wistar rats at gestational day 20. Cortices freed of meninges were dissected and individual cells were dispersed mechanically by trituration of minced tissue in 3 ml DMEM medium supplemented with 2% FBS. The suspension was allowed to settle in a centrifuge tube. The cells in the supernatant were collected by centrifugation and resuspended gently in DMEM with 10% FBS. Viability of the cells was assessed prior to plating using trypan blue. Cells were plated onto microplates pre-coated with poly-L-lysine/laminin at a density of 7.5×10^5 viable cells/cm^2. After a two-hour incubation period to allow neurons to attach, the medium and unattached cells were removed and replaced by serum-free DMEM/F12 medium with 1% N2 supplement (Invitrogen, Carlsbad, Calif., USA). The cell were then incubated at 37° C. in 5% CO2 in a humidified incubator. After 2–5 days of culture, the neuron cells were used for transfection experiments. Gene delivery complexes were also tested on primary cultures of cortical neurons and glial cells in a similar fashion. […] Four hours later, an equal volume of DMEM-F12/N2 was added. One to two days after transfection, the cell culture medium was removed and the cells were rinsed in phosphate-buffered saline (PBS). Enough Reporter Lysis Buffer (Promega, Wisconsin, Md., USA) to cover the bottom surface was added to each well (50 μl/well for 48-well plates). After one freeze-thaw cycle, the lysates were tested for luciferase activity using the Luciferase Assay System (Promega) and a single-tube luminometer (Berthold Lumat L B 9507, Bad Wildbad, Germany). The total protein concentration of each lysate was determined using the DC Protein assay (Bio-Rad, Hercules, Calif., USA). The results were expressed in relative light units (RLU) per milligram of total protein.

primary glial cells = experiment: Gene delivery to primary cultures of glial cells; format: cell-based, rat
Protocol: Primary cultures of glial cells were established from the cortices of 20-day old embryonic Wistar rats. Individual cells were collected as described above. The cells were plated at a density of 4×10^5 viable cells/cm^2 on poly-L-lysine/laminin coated dishes and grown to confluence for 7 days in DMEM/F12 medium supplemented with 10% FCS. The day before transfection, the cells were detached and plated into coated microplates at a density of 2.5×10^4 cells per well. Gene delivery complexes were also tested on primary cultures of cortical neurons and glial cells in a similar fashion. […] Four hours later, an equal volume of DMEM-F12/N2 was added. One to two days after transfection, the cell culture medium was removed and the cells were rinsed in phosphate-buffered saline (PBS). Enough Reporter Lysis Buffer (Promega, Wisconsin, Md., USA) to cover the bottom surface was added to each well (50 μl/well for 48-well plates). After one freeze-thaw cycle, the lysates were tested for luciferase activity using the Luciferase Assay System (Promega) and a single-tube luminometer (Berthold Lumat L B 9507, Bad Wildbad, Germany). The total protein concentration of each lysate was determined using the DC Protein assay (Bio-Rad, Hercules, Calif., USA). The results were expressed in relative light units (RLU) per milligram of total protein.

plasmid DNA [3] = experiment: Atomic force microscopy of polypeptide-DNA complexes; format: physicochemical; conditions: N/P ratio of 10
Protocol: DNA samples, polypeptide-DNA complexes, and polypeptide-polycation-DNA complexes were prepared with a DNA concentration of 0.02 mg/ml. The samples were diluted ten-fold in HPLC-grade water, and 20 μl of each sample was deposited onto mica discs. After one minute, the mica discs were washed with HPLC-grade water and dried in a stream of filtered air. Images were acquired on a Nanoscope IIIa atomic force microscope (Digital Instruments, Santa Barbara, Calif., USA) operating in tapping mode in air, using Nanoprobe Silicon tips (Digital Instruments).

[4] = 0.25 μg/well pCAGluc, PEI600-based complexes
[5] = pCAGluc/SPKR4BL1-2 without PEI600, 0.25 μg/well

T1 sequence (P35739 33-799): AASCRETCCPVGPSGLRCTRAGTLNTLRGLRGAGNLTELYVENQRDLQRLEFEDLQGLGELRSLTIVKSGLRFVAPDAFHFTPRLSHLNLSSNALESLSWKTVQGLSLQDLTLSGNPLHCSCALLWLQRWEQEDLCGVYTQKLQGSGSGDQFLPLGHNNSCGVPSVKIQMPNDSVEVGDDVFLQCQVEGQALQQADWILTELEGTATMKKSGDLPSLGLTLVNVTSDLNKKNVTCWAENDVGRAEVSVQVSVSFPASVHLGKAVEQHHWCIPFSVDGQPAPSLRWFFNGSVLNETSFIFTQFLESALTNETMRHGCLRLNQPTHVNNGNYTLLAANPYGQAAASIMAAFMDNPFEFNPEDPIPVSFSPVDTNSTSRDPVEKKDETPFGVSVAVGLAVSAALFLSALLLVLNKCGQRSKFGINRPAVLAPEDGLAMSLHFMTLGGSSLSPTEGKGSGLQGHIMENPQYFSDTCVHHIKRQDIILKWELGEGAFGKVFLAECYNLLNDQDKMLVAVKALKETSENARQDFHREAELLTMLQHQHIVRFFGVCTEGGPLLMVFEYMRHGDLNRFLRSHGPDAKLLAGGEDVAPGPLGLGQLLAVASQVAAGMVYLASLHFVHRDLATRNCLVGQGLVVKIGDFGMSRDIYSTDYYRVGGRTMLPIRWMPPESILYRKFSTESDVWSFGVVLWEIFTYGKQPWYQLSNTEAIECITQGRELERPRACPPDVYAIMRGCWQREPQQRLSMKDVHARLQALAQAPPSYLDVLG

Molecule: CC(C)(C)c1cc(/C=C(\C#N)C(N)=S)cc(C(C)(C)C)c1O [AG879, reference compound]
- effect of TrkA inhibitor pre-treatment on NL4- and NL4-10K-induced phosphorylation of Erk1 and Erk2 (Erk1 and Erk2): greatly reduced

Molecule: NL4: loop 4 of NGF and the flanking β-sheet sequences, amino acids 80–108; targeting domain only (CTTTHTFVKALTMDGKQAAWRFIRIDTAC; disulfide 1-29)
- DNA binding / retardation of DNA migration (in words) (plasmid DNA [1]): does not retard DNA migration
- dose-response of transfection efficiency with increasing amount of peptide [2]: Neither NL4 (targeting domain only) nor 10K (DNA-binding domain only) nor a mixture of the two exhibited this dose-responsive trend
- activation (phosphorylation) of TrkA (TrkA): induced activation
- activation (phosphorylation) of Erk 1 and Erk 2 (Erk1 and Erk2; 5 μM peptide, 20 min): induced activation
- activation (phosphorylation) of Akt (Akt): induced activation
- cell survival rate as % of optimal NGF-promoted survival (PC12 cells): 68–109%

Molecule: COC(=O)[C@@]1(O)C[C@H]2O[C@]1(C)n1c3ccccc3c3c4c(c5c6ccccc6n2c5c31)C(=O)NC4 [K-252a, reference compound]
- effect of K-252a on Erk phosphorylation induced by 8 μM SPKR4NL1-2 (Erk1 and Erk2; 0, 10, 20, 50 and 100 nM K-252a, 10 min pre-incubation): reduced and eventually eliminated
- effect of TrkA inhibitor pre-treatment on NL4- and NL4-10K-induced phosphorylation of Erk1 and Erk2 (Erk1 and Erk2): greatly reduced

Molecule: NGF: nerve growth factor, neurotrophin; competitor and positive control
- effect of added NGF on transfection by (SPKR)4/DNA/PEI600 ([2]; NGF 200 ng/ml): no significant effect
- effect of added NGF on transfection by SPKR4NL1-2/DNA/PEI600 ([2]; NGF 200 ng/ml during transfection): greatly reduces the transfection efficiency

Molecule: SPKRSPKRSPKRSPKR (artificial sequence SPKR4) [(SPKR)4, reference compound]
- transgene expression (in words) (primary cortical neurons; [4]): enhances transgene expression
- transgene expression (in words) (primary glial cells; [4]): enhances transgene expression

Molecule: KKKKKKKKKK (artificial sequence lysine 10) [10K, ten consecutive lysine residues, reference compound]
- dose-response of transfection efficiency with increasing amount of peptide [2]: Neither NL4 (targeting domain only) nor 10K (DNA-binding domain only) nor a mixture of the two exhibited this dose-responsive trend
- reduction of efficiency of NL4-10K/pCAGluc gene delivery by excess free competitor ([2]; competitor present during transfection, complexes at N/P ratio of 5, 100 μM chloroquine): did not have a significant effect

B1: SPKR4BL1-2: chimeric protein analogous to SPKR4NL1-2 with loops 1 and 2 of BDNF (aa 22–74) to bind TrkB (protein)
chain: MGHHHHHHHHHHSSGHIEGRHMSPKRSPKRSPKRSPKRGGTYLSEDELKAAEAAFKRHNPTGSCSISEWVTAADKKTAVDMSGGTVTVLEKVPVSKGQLKQYFYETKCNPMGYTKEG
modifications: SPKR4BL1-2
- N/P ratio at which plasmid DNA is completely retarded (complex immobile) (plasmid DNA [1]; 0.1 μg plasmid DNA, agarose gel): 2 N/P ratio
- peptide/DNA amount equivalent to the N/P ratio of complete retardation (plasmid DNA [1]; N/P ratio of 2): 0.8 nmol/ug DNA
- diameter of condensed plasmid DNA particles (plasmid DNA [3]): under 200 nm
- increase of transgene expression with increasing SPKR4BL1-2 (primary cortical neurons; PEI600 fixed at N/P ratio of 10, 0.25 μg/well pCAGluc, highest ratio used): up to 500 fold
- transgene expression relative to PEI600/DNA (primary glial cells; [5]): 50 times
- transgene expression relative to naked DNA (primary glial cells; [5]): 180 times
